Reference: ChEMBL document CHEMBL1129309, “Asymmetric syntheses, opioid receptor affinities, and antinociceptive effects of 8-amino-5,9-methanobenzocyclooctenes, a new class of structural analogues of the morphine alkaloids” (J Med Chem, 1996)

Legend:
[1] = system: Mus musculus; assay: Percent activity against delta selective antinociception when given icv injection at a dose of 10 nmol 20 min before mouse tail flick test; format: functional
[2] = system: Mus musculus; assay: Percent activity against delta selective antinociception when given icv injection at a dose of 10 nmol 20 min before the mouse tail flick test along with 4 nmol ICI 174864; format: functional
[3] = target: Mu-type opioid receptor (Bos taurus, UniProt P79350); assay: Activity was evaluated by inhibition of the binding of 0.8 nM [3H]- DAMGO at Opioid receptor mu 1 binding site
[4] = target: Kappa-type opioid receptor (Cavia porcellus, UniProt P41144); assay: Activity was evaluated by inhibition of the binding of 1 nM [3H]U-69593 at Opioid receptor kappa 1 binding site
[5] = species: Mus musculus; assay: Antinociceptive action was evaluated by mouse tail flick assay at a dose of 100 nmol in the presence of 3 nmol morphine on 5 mice; format: functional
[6] = species: Mus musculus; assay: Antinociceptive action was evaluated by mouse tail flick assay at a dose of 300 nmol on 5 mice; format: functional
[7] = species: Mus musculus; assay: Antinociceptive action was evaluated by mouse tail flick assay at a dose of 100 nmol on 10 mice; format: functional
[8] = species: Mus musculus; assay: Antinociceptive action was evaluated by mouse tail flick assay at a dose of 100 nmol in the presence of morphine on 9 mice; format: functional
[9] = species: Mus musculus; assay: Antinociceptive action was evaluated by mouse tail flick assay at a dose of 3 nmol on 9 mice; format: functional
[10] = species: Mus musculus; assay: Antinociceptive action was evaluated by mouse tail flick assay at a dose of 10 nmol on 5 mice; format: functional

Kappa-type opioid receptor, sequence (P41144 whole entry): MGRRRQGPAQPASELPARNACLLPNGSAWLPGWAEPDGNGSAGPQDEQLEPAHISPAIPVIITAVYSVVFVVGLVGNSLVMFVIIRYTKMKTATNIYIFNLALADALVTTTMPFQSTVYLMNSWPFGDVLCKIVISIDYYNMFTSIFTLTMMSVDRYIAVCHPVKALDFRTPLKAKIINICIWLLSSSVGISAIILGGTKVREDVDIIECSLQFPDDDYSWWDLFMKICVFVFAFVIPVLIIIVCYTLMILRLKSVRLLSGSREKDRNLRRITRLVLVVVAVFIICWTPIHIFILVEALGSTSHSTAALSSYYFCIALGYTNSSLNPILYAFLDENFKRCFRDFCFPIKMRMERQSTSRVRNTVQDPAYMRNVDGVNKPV
Mu-type opioid receptor, sequence (P79350 whole entry): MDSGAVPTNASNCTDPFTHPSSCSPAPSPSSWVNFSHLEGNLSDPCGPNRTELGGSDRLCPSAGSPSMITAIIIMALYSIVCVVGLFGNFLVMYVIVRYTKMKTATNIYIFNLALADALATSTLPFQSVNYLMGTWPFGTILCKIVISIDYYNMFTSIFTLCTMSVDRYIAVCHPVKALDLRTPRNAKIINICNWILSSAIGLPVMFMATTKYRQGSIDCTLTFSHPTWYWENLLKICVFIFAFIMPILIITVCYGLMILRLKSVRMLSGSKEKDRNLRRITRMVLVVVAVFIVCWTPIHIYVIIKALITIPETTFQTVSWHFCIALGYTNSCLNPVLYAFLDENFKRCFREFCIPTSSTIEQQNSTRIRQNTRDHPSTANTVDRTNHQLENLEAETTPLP

Structure (SMILES) | Ki [3] [nM] | Ki [4] [nM] | other results
CC1(C)SSC(C)(C)[C@@H](NC(=O)[C@@H](N)Cc2ccc(O)cc2)C(=O)NCC(=O)N[C@@H](Cc2ccccc2)C(=O)N[C@H]1C(=O)O | – | – | Activity [1]: 55%; Activity [2]: 5%
CNCC12Cc3ccc(O)cc3C(C)(CCC1N)C2 (stereo unspecified) | 91.6 | 51.6 | –
COC[C@]12Cc3ccc(O)cc3[C@](C)(CCc3nnnn31)C2 | – | > 10000 | –
CN1CNC2CCC3(C)CC2(Cc2ccc(O)cc23)C1 (stereo unspecified) | 27.7 | 17.2 | –
COCC12Cc3ccc(O)cc3[C@](C)(CCCN1C)C2 (single isomer, unassigned) | – | 795 | –
CN(C)C1CCC2(C)CC1(CO)Cc1ccc(O)cc12 (single isomer, unassigned; (+)) | 830 | 2900 | –
CN(C)C1CCC2(C)CC1(C)Cc1ccc(O)cc12 (single isomer, unassigned; (+)) | – | 5960 | –
CN1CC23Cc4ccc(O)cc4C(C)(CCC12)C3 (single isomer, unassigned; (+)) | 179 | 215 | –
COCC12Cc3ccc(O)cc3C(C)(CCC1N(C)C)C2 (single isomer, unassigned; (+)) | 25.2 | 123 | –
CNC1CCC2(C)CC1(CO)Cc1ccc(O)cc12 (single isomer, unassigned; (+)) | 42 | 440 | –
CN(C)C1CCC2(C)CC1(C)Cc1ccc(O)cc12 (single isomer, unassigned; (-)) | 297 | 409 | –
CC12CCC(N)C(CO)(Cc3ccc(O)cc31)C2 (single isomer, unassigned; (-)) | 40.6 | 109 | –
COCC12Cc3ccc(O)cc3C(C)(CCC1N(C)C)C2 (single isomer, unassigned; (-)) | 19.3 | 60.9 | –
CNC1CCC2(C)CC1(CO)Cc1ccc(O)cc12 (single isomer, unassigned; (-)) | 380 | 650 | –
COCC12Cc3ccc(O)cc3C(C)(CCC1N)C2 (stereo in doubt; (+)3a) | 1.99 | 80.8 | Antinociception [5]: 58%; Antinociception [6]: 13%
CC12CCC(N)C(CO)(Cc3ccc(O)cc31)C2 (stereo in doubt; (+)-3b) | 41.2 | > 10000 | –
COCC12Cc3ccc(O)cc3C(C)(CCC1N)C2 (stereo in doubt; (-)-3a) | 2.29 | 53.1 | Antinociception [7]: 37%
CN(C)C1CCC2(C)CC1(CO)Cc1ccc(O)cc12 (stereo in doubt; (-)-3c) | 870 | 3800 | –
COCC12Cc3ccc(O)cc3C(C)(CCC1N)C2 (stereo in doubt; (dl)-22) | 1.99 | 6.62 | Antinociception [8]: 74%
CN1CC[C@]23c4c5ccc(O)c4O[C@H]2[C@@H](O)C=C[C@H]3[C@H]1C5 [MORPHINE] | – | – | Antinociception [9]: 65%; Antinociception [10]: 100%
